# Results taken from ChEMBL document CHEMBL5226326, “Discovery of 1-Benzoyl 4-Phenoxypiperidines as Small-Molecule Inhibitors of the β-Catenin/B-Cell Lymphoma 9 Protein-Protein Interaction” (J Med Chem, 2021).
# Calls of active or inactive are those of the source. No cut-off for these calls is given here.
# Legend:
# Homo sapiens [1] = species on record: Homo sapiens; assay: Selectivity ratio, ratio of Ki for inhibition of full length beta-catenin (1 to 781 residues) (unknown origin) expressed in Escherichia coli BL21 (DE3)/N-terminal biotinylated human BCL9 HD2 (350 to 375 residues) protein-protein interaction to Ki for inhibition of full length beta-catenin (1 to 686 residues) (unknown origin) expressed in Escherichia coli BL21 (DE3)/N-terminal biotinylated human E-cadherin (824 to 877 residues) protein-protein interaction
# [2] = biological target: T1, beta-catenin-B-cell lymphoma 9 protein complex (Homo sapiens) (UniProt P35222+O00512); assay: Inhibition of beta-catenin/BCL9 protein-protein interaction in human HCT-116 cells at 1 to 12.5 uM incubated for 24 hr by Co-immunoprecipitation assay; format: cell-based; details: dose 1-12.5 µM
# [3] = biological target: Catenin beta-1/Cadherin-1 (Homo sapiens) (UniProt P35222+P12830); assay: Inhibition of beta-catenin/E-cadherin protein-protein interaction in human HCT-116 cells at 1 to 12.5 uM incubated for 24 hr by Co-immunoprecipitation assay; format: cell-based; details: dose 1-12.5 µM
# SW480 [4] = assay: Inhibition of Wnt/beta-catenin transactivation signalling in human SW480 cells transfected with renilla luciferase and FOPFlash reporter gene at 1.56 uM incubated for 24 hrs by dual-luciferase assay (reference value: 100%); format: cell-based; details: values are per cent of control
# SW480 [5] = assay: Inhibition of Wnt/beta-catenin transactivation signalling in human SW480 cells transfected with renilla luciferase and FOPFlash reporter gene at 3.125 uM incubated for 24 hrs by dual-luciferase assay (reference value: 100%); format: cell-based; details: values are per cent of control
# SW480 [6] = assay: Inhibition of Wnt/beta-catenin transactivation signalling in human SW480 cells transfected with renilla luciferase and FOPFlash reporter gene at 6.25 uM incubated for 24 hrs by dual-luciferase assay (reference value: 100%); format: cell-based; details: values are per cent of control
# Homo sapiens [7] = species on record: Homo sapiens; assay: Selectivity ratio, ratio of IC50 for inhibition of Wnt/beta-catenin transactivation signalling in human HEK293 cells transfected with TOPFlash reporter gene to IC50 for inhibition of Wnt/beta-catenin D145A/E155A mutant transactivation signalling in human HEK293 cells transfected with TOPFlash reporter gene; format: cell-based
# SW480 [8] = assay: Inhibition of Wnt/beta-catenin signaling pathway in human SW480 cells assessed as reduction in Axin2 level at 12.5 uM incubated for 24 hrs by qRT-PCR analysis (reference value: 100%); format: cell-based; details: values are per cent of control
# SW480 [9] = assay: Inhibition of Wnt/beta-catenin signaling pathway in human SW480 cells assessed as reduction in BCL9L level at 12.5 uM incubated for 24 hrs by qRT-PCR analysis (reference value: 100%); format: cell-based; details: values are per cent of control
# SW480 [10] = assay: Inhibition of Wnt/beta-catenin signaling pathway in human SW480 cells assessed as reduction in MMP7 level at 12.5 uM incubated for 24 hrs by qRT-PCR analysis (reference value: 100%); format: cell-based; details: values are per cent of control
# SW480 [11] = assay: Inhibition of Wnt/beta-catenin signaling pathway in human SW480 cells assessed as reduction in HPRT level at 12.5 uM incubated for 24 hrs by qRT-PCR analysis (reference value: 100%); format: cell-based; details: values are per cent of control
# SW480 [12] = assay: Inhibition of Wnt/beta-catenin signaling pathway in human SW480 cells assessed as reduction in Axin2 level at 1 to 12.5 uM incubated for 24 hrs by western blot analysis; format: cell-based; details: dose 1-12.5 µM
# [13] = biological target: T1, beta-catenin-B-cell lymphoma 9 protein complex (Homo sapiens); assay: Inhibition of full length wild type beta-catenin/N-terminal biotinylated human BCL9 HD2 (350 to 375 residues) protein-protein interaction in human SW480 cells at 1 to 10 uM incubated for 3 hr by immunoblot based pull-down assay; format: cell-based; details: dose 1-10 µM
# SW480 [14] = assay: Inhibition of full length beta-catenin D145A mutant/N-terminal biotinylated human BCL9 HD2 (350 to 375 residues) protein-protein interaction in human SW480 cells at 1 to 10 uM incubated for 3 hr by immunoblot based pull-down assay; format: cell-based; details: dose 1-10 µM
# SW480 [15] = assay: Inhibition of full length beta-catenin E155A mutant/N-terminal biotinylated human BCL9 HD2 (350 to 375 residues) protein-protein interaction in human SW480 cells at 1 to 10 uM incubated for 3 hr by immunoblot based pull-down assay; format: cell-based; details: dose 1-10 µM
# [16] = biological target: T2, beta-catenin-B-cell lymphoma 9 protein complex (Homo sapiens, UniProt P35222); assay: Inhibition of full length beta-catenin (1 to 781 residues) (unknown origin) expressed in Escherichia coli BL21 (DE3)/N-terminal biotinylated human BCL9 HD2 (350 to 375 residues) protein-protein interaction incubated for 1 hr by Alphascreen assay
# T2 sequence (P35222 whole entry): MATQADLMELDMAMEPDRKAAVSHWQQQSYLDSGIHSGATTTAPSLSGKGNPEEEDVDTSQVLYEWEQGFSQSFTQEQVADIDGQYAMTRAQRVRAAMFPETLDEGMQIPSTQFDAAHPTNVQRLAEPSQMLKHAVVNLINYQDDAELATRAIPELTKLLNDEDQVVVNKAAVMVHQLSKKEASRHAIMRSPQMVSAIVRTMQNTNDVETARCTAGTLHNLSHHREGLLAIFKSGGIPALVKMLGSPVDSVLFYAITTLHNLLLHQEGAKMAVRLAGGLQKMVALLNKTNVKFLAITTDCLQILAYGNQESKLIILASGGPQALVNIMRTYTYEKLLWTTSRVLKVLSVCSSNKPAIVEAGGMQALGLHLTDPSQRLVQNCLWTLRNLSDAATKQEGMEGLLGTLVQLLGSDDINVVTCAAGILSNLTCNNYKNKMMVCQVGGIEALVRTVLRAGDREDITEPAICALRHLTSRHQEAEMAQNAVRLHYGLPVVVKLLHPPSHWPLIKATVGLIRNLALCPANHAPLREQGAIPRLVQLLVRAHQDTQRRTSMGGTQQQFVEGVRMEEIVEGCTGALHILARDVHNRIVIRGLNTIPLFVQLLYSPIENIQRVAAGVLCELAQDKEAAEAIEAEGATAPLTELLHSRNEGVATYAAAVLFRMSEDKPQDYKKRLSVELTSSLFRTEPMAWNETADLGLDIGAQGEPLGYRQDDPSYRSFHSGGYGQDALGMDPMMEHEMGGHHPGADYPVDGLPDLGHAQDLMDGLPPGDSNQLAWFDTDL
# T2 sequence (O00512 whole entry): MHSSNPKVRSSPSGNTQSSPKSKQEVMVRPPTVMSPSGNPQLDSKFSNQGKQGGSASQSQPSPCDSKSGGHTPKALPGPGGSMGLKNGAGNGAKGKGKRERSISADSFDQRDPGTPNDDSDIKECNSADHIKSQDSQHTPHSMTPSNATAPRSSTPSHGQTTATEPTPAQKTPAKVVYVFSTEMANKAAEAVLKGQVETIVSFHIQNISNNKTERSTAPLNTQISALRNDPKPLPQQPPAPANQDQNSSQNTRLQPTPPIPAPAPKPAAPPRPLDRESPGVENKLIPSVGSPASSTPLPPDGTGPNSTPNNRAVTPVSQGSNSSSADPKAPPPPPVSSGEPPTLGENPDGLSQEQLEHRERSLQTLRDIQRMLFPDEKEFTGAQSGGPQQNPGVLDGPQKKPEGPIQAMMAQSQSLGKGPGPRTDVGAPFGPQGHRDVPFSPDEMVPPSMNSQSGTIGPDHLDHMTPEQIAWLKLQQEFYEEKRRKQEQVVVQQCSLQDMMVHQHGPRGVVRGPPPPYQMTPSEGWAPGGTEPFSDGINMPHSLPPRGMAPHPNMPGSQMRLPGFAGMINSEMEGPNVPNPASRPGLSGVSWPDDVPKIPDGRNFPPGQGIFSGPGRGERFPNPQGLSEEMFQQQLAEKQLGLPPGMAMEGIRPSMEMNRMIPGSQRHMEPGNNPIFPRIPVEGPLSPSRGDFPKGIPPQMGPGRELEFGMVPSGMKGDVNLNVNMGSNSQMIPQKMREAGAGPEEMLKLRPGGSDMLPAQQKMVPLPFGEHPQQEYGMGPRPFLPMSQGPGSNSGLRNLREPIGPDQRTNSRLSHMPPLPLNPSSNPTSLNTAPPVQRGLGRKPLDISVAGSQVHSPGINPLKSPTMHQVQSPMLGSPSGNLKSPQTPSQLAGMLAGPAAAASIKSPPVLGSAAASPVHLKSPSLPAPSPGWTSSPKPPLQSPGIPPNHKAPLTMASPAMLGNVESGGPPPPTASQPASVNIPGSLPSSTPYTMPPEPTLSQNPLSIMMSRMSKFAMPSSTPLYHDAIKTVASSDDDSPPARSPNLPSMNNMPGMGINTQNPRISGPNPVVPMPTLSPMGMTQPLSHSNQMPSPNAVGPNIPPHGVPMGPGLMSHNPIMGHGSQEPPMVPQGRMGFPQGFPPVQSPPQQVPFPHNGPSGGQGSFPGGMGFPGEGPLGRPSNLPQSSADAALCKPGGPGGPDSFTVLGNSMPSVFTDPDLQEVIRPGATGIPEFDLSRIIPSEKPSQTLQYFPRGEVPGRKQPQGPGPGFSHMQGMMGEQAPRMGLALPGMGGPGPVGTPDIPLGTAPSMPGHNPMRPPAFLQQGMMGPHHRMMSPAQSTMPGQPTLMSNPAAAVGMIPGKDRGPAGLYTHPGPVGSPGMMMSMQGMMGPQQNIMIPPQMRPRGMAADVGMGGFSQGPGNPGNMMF
# [17] = biological target: T2, beta-catenin-B-cell lymphoma 9 protein complex; assay: Inhibition of full length beta-catenin (1 to 781 residues) (unknown origin) expressed in Escherichia coli BL21 (DE3)/N-terminal biotinylated human BCL9 HD2 (350 to 375 residues) protein-protein interaction assessed as inhibition constant incubated for 1 hr by Alphascreen assay
# Catenin beta-1/Cadherin-1 (Homo sapiens), sequence (P12830 155-882 partner limits assumed, one chain of several): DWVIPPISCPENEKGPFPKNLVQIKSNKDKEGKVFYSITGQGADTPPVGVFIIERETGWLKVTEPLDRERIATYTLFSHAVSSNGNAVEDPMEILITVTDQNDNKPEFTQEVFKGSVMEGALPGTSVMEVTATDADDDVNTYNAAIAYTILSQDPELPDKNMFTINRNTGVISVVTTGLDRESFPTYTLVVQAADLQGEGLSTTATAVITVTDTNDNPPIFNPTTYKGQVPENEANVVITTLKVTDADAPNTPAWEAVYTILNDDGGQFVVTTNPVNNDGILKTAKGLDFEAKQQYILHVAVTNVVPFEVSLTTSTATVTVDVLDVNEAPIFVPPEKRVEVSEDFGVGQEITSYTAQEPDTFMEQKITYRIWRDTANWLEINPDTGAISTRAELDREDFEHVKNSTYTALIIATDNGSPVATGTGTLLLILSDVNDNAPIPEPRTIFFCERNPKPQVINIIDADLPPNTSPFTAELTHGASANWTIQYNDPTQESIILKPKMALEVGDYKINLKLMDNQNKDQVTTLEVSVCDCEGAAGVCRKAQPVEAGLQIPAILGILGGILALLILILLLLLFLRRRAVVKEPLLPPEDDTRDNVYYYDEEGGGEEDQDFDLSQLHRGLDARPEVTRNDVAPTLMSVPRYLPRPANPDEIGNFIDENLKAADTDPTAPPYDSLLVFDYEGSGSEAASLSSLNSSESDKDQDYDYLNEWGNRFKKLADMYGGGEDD
compound,measurement,setting,value
CC(C)(C)C1CCC(c2cc(C(=O)N3CCC(Oc4cc(N5CCNCC5)ccc4C#N)CC3)ccc2O[C@H]2CCNC2)CC1 (mixture of isomers; cis),Ratio Ki,Homo sapiens [1],20
same,inhibition,[2],Active
same,inhibition,[3],inactive
same,residual activity,SW480 [4],100%
same,residual activity,SW480 [5],104%
same,residual activity,SW480 [6],96.5%
same,Ratio IC50,Homo sapiens [7],4.2
same,"response, % of control",SW480 [8],9.28%
same,"response, % of control",SW480 [9],18.6%
same,"response, % of control",SW480 [10],41.8%
same,"response, % of control",SW480 [11],99.6%
same,inhibition,SW480 [12],Active
CC(C)(C)C1CCC(c2cc(C(=O)N3CCC(Oc4cc(N5CCNCC5)ccc4C#N)CC3)ccc2O[C@@H]2CNC[C@H]2OCCOCCOCCNC(=O)CCCC[C@@H]2SC[C@@H]3NC(=O)N[C@@H]32)CC1 (mixture of isomers),inhibition,[13],Active
same,inhibition,SW480 [14],inactive
same,inhibition,SW480 [15],inactive
CC(C)(C)C1CCC(c2cc(C(=O)N3CCC(Oc4cc(N5CCNCC5)cc(F)c4F)CC3)ccc2O[C@H]2CCNC2)CC1 (mixture of isomers),IC50,[16],3.7 µM
same,Ki,[17],3.1 µM
NCCCC(=O)Nc1cc(F)cc(OC2CCN(C(=O)c3ccc(O[C@H]4CCNC4)c(C4CCCCC4)c3)CC2)c1,IC50,[16],73 µM
same,Ki,[17],66 µM
CNC(=O)c1ccc(N2CCNCC2)cc1OC1CCN(C(=O)c2ccc(O[C@H]3CCNC3)c(C3CCC(C(C)(C)C)CC3)c2)CC1 (mixture of isomers),IC50,[16],47 µM
same,Ki,[17],38 µM
CC(C)(C)C1CCC(c2cc(C(=O)N3CCC(Oc4cc(N5CCNCC5)ccc4C#N)CC3)ccc2O[C@H]2CCNC2)CC1 (mixture of isomers; 36),IC50,[16],1.5 µM
same,Ki,[17],1.2 µM
CN(C)Cc1cn(Cc2cc(F)cc(OC3CCN(C(=O)c4ccc(O[C@H]5CCNC5)c(C5CCCCC5)c4)CC3)c2)nn1,IC50,[16],80 µM
same,Ki,[17],72 µM
O=C(c1ccc(O[C@H]2CCNC2)c(C2CCN(C(=O)C3CC3)CC2)c1)N1CCC(Oc2cc(F)cc(N3CCNCC3)c2)CC1,IC50,[16],39 µM
same,Ki,[17],35 µM
